According to patent US9012443B2 (Amgen Inc., priority 2011, dated 2015):
pIC50: −log10 of the molar value. Where “and” joins values, the source holds several entries; their conditions need not be identical. Equal entries are not always repeated.

What follows are compounds tested against Nav 1.7 (Homo sapiens (Human), UniProt Q15858) (assay: Nav 1.7 IWQ in vitro assay (IonWorks Quattro population patch-clamp)). Settings: 293 cells stably transfected with Nav 1.7; first part of table; read-out: Nav 1.7 IWQ IC50.
Chain of Nav 1.7 (Q15858 whole entry): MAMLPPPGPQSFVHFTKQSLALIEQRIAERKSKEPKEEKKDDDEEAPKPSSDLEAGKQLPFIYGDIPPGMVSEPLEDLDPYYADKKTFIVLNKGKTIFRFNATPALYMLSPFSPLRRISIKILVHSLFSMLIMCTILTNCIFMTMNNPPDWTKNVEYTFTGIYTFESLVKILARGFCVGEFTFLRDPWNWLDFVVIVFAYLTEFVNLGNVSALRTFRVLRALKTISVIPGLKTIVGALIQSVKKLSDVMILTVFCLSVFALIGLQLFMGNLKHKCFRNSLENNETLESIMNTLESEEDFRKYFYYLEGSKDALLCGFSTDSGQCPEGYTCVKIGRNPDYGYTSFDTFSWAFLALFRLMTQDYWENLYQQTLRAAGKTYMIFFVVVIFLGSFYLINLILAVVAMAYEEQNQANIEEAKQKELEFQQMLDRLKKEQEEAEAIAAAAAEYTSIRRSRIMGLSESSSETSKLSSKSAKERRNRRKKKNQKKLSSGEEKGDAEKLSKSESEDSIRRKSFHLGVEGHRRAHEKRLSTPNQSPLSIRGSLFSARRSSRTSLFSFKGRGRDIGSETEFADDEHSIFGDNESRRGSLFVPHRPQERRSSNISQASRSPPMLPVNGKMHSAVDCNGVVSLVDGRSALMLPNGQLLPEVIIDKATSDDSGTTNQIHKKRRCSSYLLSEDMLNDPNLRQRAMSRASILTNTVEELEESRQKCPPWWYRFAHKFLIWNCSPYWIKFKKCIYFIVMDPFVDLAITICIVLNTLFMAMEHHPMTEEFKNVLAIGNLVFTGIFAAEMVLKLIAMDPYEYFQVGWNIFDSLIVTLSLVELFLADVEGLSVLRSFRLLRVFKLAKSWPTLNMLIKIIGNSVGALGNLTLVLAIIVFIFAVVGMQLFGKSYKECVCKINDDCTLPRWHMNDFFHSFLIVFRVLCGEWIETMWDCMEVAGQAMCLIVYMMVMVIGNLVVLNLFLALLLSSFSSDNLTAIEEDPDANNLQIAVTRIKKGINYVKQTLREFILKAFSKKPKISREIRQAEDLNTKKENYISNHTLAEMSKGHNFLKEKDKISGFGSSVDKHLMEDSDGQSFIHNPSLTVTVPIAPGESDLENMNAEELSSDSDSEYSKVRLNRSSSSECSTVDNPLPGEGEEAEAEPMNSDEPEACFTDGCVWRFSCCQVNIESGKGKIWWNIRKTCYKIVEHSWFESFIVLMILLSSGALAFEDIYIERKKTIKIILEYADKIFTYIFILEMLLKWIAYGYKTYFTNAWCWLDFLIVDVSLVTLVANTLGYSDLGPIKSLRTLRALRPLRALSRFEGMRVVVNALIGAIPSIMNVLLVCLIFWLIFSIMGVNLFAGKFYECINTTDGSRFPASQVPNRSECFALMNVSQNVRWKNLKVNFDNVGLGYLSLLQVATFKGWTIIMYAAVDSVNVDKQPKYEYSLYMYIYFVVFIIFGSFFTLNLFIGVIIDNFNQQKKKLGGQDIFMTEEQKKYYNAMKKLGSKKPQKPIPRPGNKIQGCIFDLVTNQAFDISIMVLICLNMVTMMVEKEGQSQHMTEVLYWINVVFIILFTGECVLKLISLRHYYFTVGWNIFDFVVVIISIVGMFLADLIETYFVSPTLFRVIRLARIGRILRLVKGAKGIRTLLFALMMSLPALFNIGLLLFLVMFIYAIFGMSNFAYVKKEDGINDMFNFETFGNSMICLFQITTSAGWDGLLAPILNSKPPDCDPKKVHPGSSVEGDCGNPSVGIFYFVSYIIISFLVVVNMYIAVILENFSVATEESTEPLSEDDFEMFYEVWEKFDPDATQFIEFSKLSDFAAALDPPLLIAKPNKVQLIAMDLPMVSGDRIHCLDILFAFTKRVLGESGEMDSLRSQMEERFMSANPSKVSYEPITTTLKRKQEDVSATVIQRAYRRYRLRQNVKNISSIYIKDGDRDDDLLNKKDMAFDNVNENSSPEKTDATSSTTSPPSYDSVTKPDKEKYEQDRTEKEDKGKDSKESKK
Type: cell-based
How it was run: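 HEK293 cells stably expressing Nav 1.7, recorded by automated population patch-clamp with a train of depolarizations producing increasing inactivation. Single compound concentration added during 3–8 min unclamped period, then same protocol repeated. Leak-corrected current at 26th pulse to −20 mV gave percent block (duplicate); IC50 fitted from concentration–block curves.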
For `O=S(=O)(Nc1ccncn1)c1ccc2c(-c3ccc(C(F)(F)F)cc3Br)nccc2c1` [Example 66, 1-(2-BROMO-4-(TRIFLUOROMETHYL)PHENYL)-N-(PYRIMIDIN-4-YL)ISOQUINOLINE-6-SULFONAMIDE], the pIC50 was 6.92.
In the case of `CN(C)C(=O)C1CN(c2cccc3cc(S(=O)(=O)Nc4ncns4)ccc23)CCO1` (stereo not shown) [Example 19], the pIC50 was 5.93.
In the case of `O=S(=O)(Nc1ncns1)c1ccc2c(-c3ccc(C(F)(F)F)c(Cl)c3)nccc2c1` [Example 57, 1-(3-CHLORO-4-(TRIFLUOROMETHYL)PHENYL)-N-(1,2,4-THIADIAZOL-5-YL)ISOQUINOLINE-6-SULFONAMIDE], the pIC50 was 6.66.
`O=S(=O)(Nc1nccs1)c1ccc2c(-c3ccc(C(F)(F)F)cc3C3=CCNCC3)nccc2c1` [Example 70, 1-(2-(1,2,3,6-TETRAHYDROPYRIDIN-4-YL)-4-(TRIFLUOROMETHYL)PHENYL)-N-(THIAZOL-2-YL)ISOQUINOLINE-6-SULFONAMIDE] was tested, and the pIC50 was 7.82.
`O=S(=O)(Nc1nccs1)c1ccc2c(-c3ccc(C(F)(F)F)cc3Cl)cccc2c1` [Example 79] was tested, and the pIC50 was 6.05.
Compound `O=S(=O)(Nc1ncns1)c1ccc2c(-c3ccncc3)cccc2c1` [Example 7] has a pIC50 of 5.11.
Compound `COc1cc(Cl)ccc1-c1cccc2cc(S(=O)(=O)Nc3ncco3)ccc12` [Example 45] has a pIC50 of 6.65.
For `O=S(=O)(Nc1ccncn1)c1ccc2c(-c3ccc(C(F)(F)F)cc3-c3ccncc3)nccc2c1` [Example 65, 1-(2-(PYRIDIN-4-YL)-4-(TRIFLUOROMETHYL)PHENYL)-N-(PYRIMIDIN-4-YL)ISOQUINOLINE-6-SULFONAMIDE], the pIC50 was 6.49.

Same assay, conditions: 293 cells stably transfected with Nav 1.7; second part of table; read-out: Nav1.7 IWQ IC50 IP
With `COc1ncc(F)cc1-c1nccc2cc(S(=O)(=O)Nc3ccncn3)ccc12` [Example 166, 1-(5-FLUORO-2-METHOXYPYRIDIN-3-YL)-N-(PYRIMIDIN-4-YL)ISOQUINOLINE-6-SULFONAMIDE] the pIC50 was 5.86.
For `O=S(=O)(Nc1ccncn1)c1ccc2c(OCc3cccnc3N3CCOCC3)nccc2c1` [Example 298, 1-((2-MORPHOLINOPYRIDIN-3-YL)METHOXY)-N-(PYRIMIDIN-4-YL)ISOQUINOLINE-6-SULFONAMIDE], the pIC50 was under 5.00.
`Cn1ncnc1COc1nccc2cc(S(=O)(=O)Nc3ccncn3)ccc12` [Example 295, 1-((1-METHYL-1H-1,2,4-TRIAZOL-5-YL)METHOXY)-N-(PYRIMIDIN-4-YL)ISOQUINOLINE-6-SULFONAMIDE] showed a pIC50 of under 5.00.
Compound `COc1ncccc1-c1nccc2cc(S(=O)(=O)Nc3ccncn3)ccc12` [Example 144, 1-(2-METHOXYPYRIDIN-3-YL)-N-(PYRIMIDIN-4-YL)ISOQUINOLINE-6-SULFONAMIDE] has a pIC50 of 5.17.
`COc1ccncc1-c1nccc2cc(S(=O)(=O)Nc3ccncn3)ccc12` [Example 170, 1-(4-METHOXYPYRIDIN-3-YL)-N-(PYRIMIDIN-4-YL)ISOQUINOLINE-6-SULFONAMIDE] gave a pIC50 of 5.58.
With `COc1cc(C(F)(F)F)ccc1-c1nccc2cc(S(=O)(=O)Nc3cnccn3)ccc12` [Example 186, 1-(2-METHOXY-4-(TRIFLUOROMETHYL)PHENYL)-N-(PYRAZIN-2-YL)ISOQUINOLINE-6-SULFONAMIDE] the pIC50 was 5.63 and 6.43.

Same assay, conditions: at […]
For `O=S(=O)(Nc1ccncn1)c1ccc2c(OCc3cccnc3N3CCOCC3)nccc2c1` [Example 298, 1-((2-MORPHOLINOPYRIDIN-3-YL)METHOXY)-N-(PYRIMIDIN-4-YL)ISOQUINOLINE-6-SULFONAMIDE], the “Nav1.7 Single Point Data IWQ (at […]) (%)” value was 29%.
With `O=S(=O)(Nc1ncns1)c1ccc2c(N3CCCC3c3ccncc3)ncnc2c1` (stereo not shown) [Example 539, 4-(2-(PYRIDIN-4-YL)PYRROLIDIN-1-YL)-N-(1,2,4-THIADIAZOL-5-YL)QUINAZOLINE-7-SULFONAMIDE] the “Nav1.7 Single Point Data IWQ (at […]) (%)” value was 20.3%.
For `COc1cc(C(F)(F)F)ccc1-c1c(O)ncc2cc(S(=O)(=O)Nc3nccs3)ccc12` [Example 545, 3-HYDROXY-4-(2-METHOXY-4-(TRIFLUOROMETHYL)PHENYL)-N-(THIAZOL-2-YL)ISOQUINOLINE-7-SULFONAMIDE], the “Nav1.7 Single Point Data IWQ (at […]) (%)” value was 23.7%.
For `Cn1ncnc1COc1nccc2cc(S(=O)(=O)Nc3ccncn3)ccc12` [Example 295, 1-((1-METHYL-1H-1,2,4-TRIAZOL-5-YL)METHOXY)-N-(PYRIMIDIN-4-YL)ISOQUINOLINE-6-SULFONAMIDE], the “Nav1.7 Single Point Data IWQ (at […]) (%)” value was 36%.
With `Cc1cc(S(=O)(=O)N(C)C)ccc1-c1nccc2cc(S(=O)(=O)Nc3ccncn3)ccc12` [Example 433] the “Nav1.7 Single Point Data IWQ (at […]) (%)” value was 21.2%.
